From patent publication US6448204B1, “Herbicidal 2-aryloxy-4-methyl-6-pyrazol-1-yl-pyridines” (BASF Aktiengesellschaft, priority 1999, dated 2002)

Experiments:
Assay in all cases: Pre-emergence test
Assay type in all cases: in vivo
Conditions in all cases: 3 weeks after treatment
[1] = system: Abutilon theophrasti (ABUTH)
Procedure: (§1) To evaluate their herbicidal activity, compounds according to the invention are tested using a representative range of plants: […] The pre-emergence tests involve spraying a liquid formulation of the compound onto the soil in which the seeds of the plant species mentioned above has recently been sown. The soil used in the tests is a prepared horticultural loam. […] In these tests untreated sown soil are used as controls.

[2] = system: Alopecurus myosuroides (ALOMY)
Procedure: as §1

[3] = system: Ambrosia artemisifolia (AMBEL)
Procedure: as §1

[4] = system: Cassia obtusifolia (CASOB)
Procedure: as §1

[5] = system: Digitaria sanguinalis (DIGSA)
Procedure: as §1

[6] = system: Echinochloa crus-galli (ECHCG)
Procedure: as §1

Galium aparine (GALAP) = system: Galium aparine (GALAP)
Procedure: as §1

[7] = system: Ipomoea hederacea (IPOHE)
Procedure: as §1

Lamium purpureum (LAMPU) = system: Lamium purpureum (LAMPU)
Procedure: as §1

[8] = system: Lolium multiflorum (LOLMU)
Procedure: as §1

[9] = system: Matricaria inodora (MATIN)
Procedure: as §1

Setaria viridis (SETVI) = system: Setaria viridis (SETVI)
Procedure: as §1

Stellaria media (STEME) = system: Stellaria media (STEME)
Procedure: as §1

SMILES: Cn1nc(C(F)(F)F)cc1Oc1cccc(-n2ccc(C(F)(F)F)n2)n1 [Comparison]
- Assessment rating ABUTH (pre-emergence application) ([1]; 0.013 kg/ha): 0 (0 - No effect)
- Assessment rating ABUTH (pre-emergence application) ([1]; 0.025 kg/ha): 0 (0 - No effect)
- Assessment rating ABUTH (pre-emergence application) ([1]; 0.100 kg/ha): 5 (5 - Definite injury)
- Assessment rating ABUTH (pre-emergence application) ([1]; 0.400 kg/ha): 9 (9 - Complete kill)
- Assessment rating ALOMY (pre-emergence application) ([2]; 0.013 kg/ha): 0 (0 - No effect)
- Assessment rating ALOMY (pre-emergence application) ([2]; 0.025 kg/ha): 1 (1 - Trace effect)
- Assessment rating ALOMY (pre-emergence application) ([2]; 0.100 kg/ha): 4 (4 - Injury)
- Assessment rating ALOMY (pre-emergence application) ([2]; 0.400 kg/ha): 8 (8 - Approaching complete kill)
- Assessment rating AMBEL (pre-emergence application) ([3]; 0.013 kg/ha): 0 (0 - No effect)
- Assessment rating AMBEL (pre-emergence application) ([3]; 0.025 kg/ha): 4 (4 - Injury)
- Assessment rating AMBEL (pre-emergence application) ([3]; 0.100 kg/ha): 6 (6 - Herbicidal effect)
- Assessment rating AMBEL (pre-emergence application) ([3]; 0.400 kg/ha): 8 (8 - Approaching complete kill)
- Assessment rating CASOB (pre-emergence application) ([4]; 0.013 kg/ha): 0 (0 - No effect)
- Assessment rating CASOB (pre-emergence application) ([4]; 0.025 kg/ha): 0 (0 - No effect)
- Assessment rating CASOB (pre-emergence application) ([4]; 0.100 kg/ha): 2 (2 - Slight effect)
- Assessment rating CASOB (pre-emergence application) ([4]; 0.400 kg/ha): 5 (5 - Definite injury)
- Assessment rating DIGSA (pre-emergence application) ([5]; 0.013 kg/ha): 9 (9 - Complete kill)
- Assessment rating DIGSA (pre-emergence application) ([5]; 0.025 kg/ha): 9 (9 - Complete kill)
- Assessment rating DIGSA (pre-emergence application) ([5]; 0.100 kg/ha): 9 (9 - Complete kill)
- Assessment rating DIGSA (pre-emergence application) ([5]; 0.400 kg/ha): 9 (9 - Complete kill)
- Assessment rating ECHCG (pre-emergence application) ([6]; 0.013 kg/ha): 0 (0 - No effect)
- Assessment rating ECHCG (pre-emergence application) ([6]; 0.025 kg/ha): 2 (2 - Slight effect)
- Assessment rating ECHCG (pre-emergence application) ([6]; 0.100 kg/ha): 4 (4 - Injury)
- Assessment rating ECHCG (pre-emergence application) ([6]; 0.400 kg/ha): 7 (7 - Good herbicidal effect)
- Assessment rating GALAP (pre-emergence application) (Galium aparine (GALAP); 0.013 kg/ha): 0 (0 - No effect)
- Assessment rating GALAP (pre-emergence application) (Galium aparine (GALAP); 0.025 kg/ha): 1 (1 - Trace effect)
- Assessment rating GALAP (pre-emergence application) (Galium aparine (GALAP); 0.100 kg/ha): 2 (2 - Slight effect)
- Assessment rating GALAP (pre-emergence application) (Galium aparine (GALAP); 0.400 kg/ha): 8 (8 - Approaching complete kill)
- Assessment rating IPOHE (pre-emergence application) ([7]; 0.013 kg/ha): 0 (0 - No effect)
- Assessment rating IPOHE (pre-emergence application) ([7]; 0.025 kg/ha): 1 (1 - Trace effect)
- Assessment rating IPOHE (pre-emergence application) ([7]; 0.100 kg/ha): 3 (3 - Moderate effect)
- Assessment rating IPOHE (pre-emergence application) ([7]; 0.400 kg/ha): 7 (7 - Good herbicidal effect)
- Assessment rating LAMPU (pre-emergence application) (Lamium purpureum (LAMPU); 0.013 kg/ha): 1 (1 - Trace effect)
- Assessment rating LAMPU (pre-emergence application) (Lamium purpureum (LAMPU); 0.025 kg/ha): 6 (6 - Herbicidal effect)
- Assessment rating LAMPU (pre-emergence application) (Lamium purpureum (LAMPU); 0.100 kg/ha): 8 (8 - Approaching complete kill)
- Assessment rating LAMPU (pre-emergence application) (Lamium purpureum (LAMPU); 0.400 kg/ha): 8 (8 - Approaching complete kill)
- Assessment rating LOLMU (pre-emergence application) ([8]; 0.013 kg/ha): 3 (3 - Moderate effect)
- Assessment rating LOLMU (pre-emergence application) ([8]; 0.025 kg/ha): 5 (5 - Definite injury)
- Assessment rating LOLMU (pre-emergence application) ([8]; 0.100 kg/ha): 8 (8 - Approaching complete kill)
- Assessment rating LOLMU (pre-emergence application) ([8]; 0.400 kg/ha): 8 (8 - Approaching complete kill)
- Assessment rating MATIN (pre-emergence application) ([9]; 0.013 kg/ha): 2 (2 - Slight effect)
- Assessment rating MATIN (pre-emergence application) ([9]; 0.025 kg/ha): 7 (7 - Good herbicidal effect)
- Assessment rating MATIN (pre-emergence application) ([9]; 0.100 kg/ha): 9 (9 - Complete kill)
- Assessment rating MATIN (pre-emergence application) ([9]; 0.400 kg/ha): 9 (9 - Complete kill)
- Assessment rating SETVI (pre-emergence application) (Setaria viridis (SETVI); 0.013 kg/ha): 2 (2 - Slight effect)
- Assessment rating SETVI (pre-emergence application) (Setaria viridis (SETVI); 0.025 kg/ha): 2 (2 - Slight effect)
- Assessment rating SETVI (pre-emergence application) (Setaria viridis (SETVI); 0.100 kg/ha): 8 (8 - Approaching complete kill)
- Assessment rating SETVI (pre-emergence application) (Setaria viridis (SETVI); 0.400 kg/ha): 9 (9 - Complete kill)
- Assessment rating STEME (pre-emergence application) (Stellaria media (STEME); 0.013 kg/ha): 0 (0 - No effect)
- Assessment rating STEME (pre-emergence application) (Stellaria media (STEME); 0.025 kg/ha): 8 (8 - Approaching complete kill)
- Assessment rating STEME (pre-emergence application) (Stellaria media (STEME); 0.100 kg/ha): 8 (8 - Approaching complete kill)
